“And” between values parts separate entries of the source, which are not always exact repeats. Equal values may be shown once. Read-outs that look alike come from different tables or passages of the source.
What was measured:
B. malayi AVR-14B GluCl = molecular target: T1, B. malayi AVR-14B GluCl (Brugia malayi, UniProt A0A0K0J2Q9); assay: Two-electrode voltage-clamp on Xenopus laevis oocytes expressing Bma-AVR-14B; conditions: for agonist activity (in words): tested at 1 mM; for direct activation as agonist (in words): 0.3 to 100 µM; for L-glutamate-mediated current response (mean ± SEM) / activation at 1000 µM / activation at 10000 µM: normalized to 10 mM L-glutamate
T1 sequence (A0A0K0J2Q9 19-427): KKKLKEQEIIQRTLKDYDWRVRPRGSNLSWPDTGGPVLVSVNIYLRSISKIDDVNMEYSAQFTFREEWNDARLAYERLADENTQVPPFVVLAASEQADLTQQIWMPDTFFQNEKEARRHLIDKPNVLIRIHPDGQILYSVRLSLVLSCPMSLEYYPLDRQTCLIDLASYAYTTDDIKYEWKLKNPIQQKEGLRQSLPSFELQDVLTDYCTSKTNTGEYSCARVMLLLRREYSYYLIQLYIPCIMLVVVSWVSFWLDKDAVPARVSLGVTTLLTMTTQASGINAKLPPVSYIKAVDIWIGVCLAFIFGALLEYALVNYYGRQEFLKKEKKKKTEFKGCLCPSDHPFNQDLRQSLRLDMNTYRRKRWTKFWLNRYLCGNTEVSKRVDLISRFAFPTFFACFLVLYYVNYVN

B. malayi = conditions: cited from earlier work; for gradual recovery from the paralytic effects: treated worms
adult B. malayi worms = assay: Adult B. malayi worm motility; type: cell-based, Brugia malayi; conditions: for pIC50, inhibition of motility / IC50: 24 h exposure; for IC50: read-out: IC50, inhibition of motility; for recovery from the motility paralysis: treated adult worms
[1] = test system: C. oncophora IVR AVR-14/GluClα3; conditions: IVM-resistant strain; SI table ref 5; cited from earlier work
[2] = test system: C. oncophora IVS AVR-14/GluClα3; conditions: IVM-sensitive strain; SI table ref 5; cited from earlier work
[3] = test system: H. contortus AVR-14B/GluClα3B; conditions: SI table ref 3, cited from earlier work
[4] = test system: C. elegans AVR-14B/GluClα3B; conditions: cited from earlier work
[5] = test system: D. immitis AVR-14B/GluClα3B; conditions: cited from earlier work
[6] = coapplied with 30 mM L-glutamate
[7] = peak current normalized to 30 mM L-glutamate
[8] = read-out: IC50(female), motility, female B. malayi

Cc1onc(O)c1CC(N)C(=O)O (stereo not drawn) [AMPA, α-amino-3-hydroxy-5-methyl-4-isoxazolepropionic acid]
agonist activity (in words) (B. malayi AVR-14B GluCl): failed to induce any measurable channel activity

CCN(CC)C(=O)N1CCN(C)CC1 [DEC, diethylcarbamazine]
IC50 (B. malayi; read-out: IC50, motility, B. malayi): 4.4 µM | gradual recovery from the paralytic effects (B. malayi): 3 to 4 h

N#Cc1nn(-c2c(Cl)cc(C(F)(F)F)cc2Cl)c(N)c1[S+]([O-])C(F)(F)F (stereo not shown) [FIP, fipronil]
direct activation as agonist (in words) (B. malayi AVR-14B GluCl): failed to produce direct activation | IC50 (B. malayi AVR-14B GluCl; IC50, inhibition of L-glutamate-gated current, coapplied with 30 mM L-glutamate): 1.8 µM | nH, inhibition of L-glutamate-gated current (B. malayi AVR-14B GluCl; [6]): −1.3 ± 0.4 | IC50 (B. malayi AVR-14B GluCl; pIC50, inhibition of L-glutamate-gated current, coapplied with 30 mM L-glutamate): 2 µM | inhibition at 100 µM (B. malayi AVR-14B GluCl; read-out: inhibition of the glutamate response): ~95%

NCCCC(=O)O [GABA, γ-amino butyric acid]
agonist activity (in words) (B. malayi AVR-14B GluCl): inactive

NCC(=O)O [Glycine, glycine]
agonist activity (in words) (B. malayi AVR-14B GluCl): inactive

CC[C@H](C)[C@H]1O[C@]2(CC[C@@H]1C)C[C@@H]1C[C@@H](C/C=C(\C)[C@@H](O[C@H]3C[C@H](OC)[C@@H](O[C@H]4C[C@H](OC)[C@@H](O)[C@H](C)O4)[C@H](C)O3)[C@@H](C)/C=C/C=C3\CO[C@@H]4[C@H](O)C(C)=C[C@@H](C(=O)O1)[C@]34O)O2 [IVM, ivermectin]
pIC50, inhibition of motility (adult B. malayi worms; adult female worms): 5.9 ± 0.4 | pIC50, inhibition of motility (adult B. malayi worms; adult male worms): 4.9 ± 0.2 | IC50 (adult B. malayi worms; adult female worms): 1.1 µM | IC50 (adult B. malayi worms; adult male worms): 11.6 µM | recovery from the motility paralysis (adult B. malayi worms): do not show any sign of recovery | EC50 [1]: 1.3 µM | EC50 [2]: 0.5 µM | direct activation of receptor (in words) (B. malayi AVR-14B GluCl; 1 pM IVM): did not activate the Bma-AVR-14B receptor directly | effect on NA-mediated effects (in words) (B. malayi AVR-14B GluCl; 0.1 nM IVM, NA with 30 µM L-glutamate): eliminated the agonist as well as PAM effects of NA | L-glutamate-mediated current response (mean ± SEM) (B. malayi AVR-14B GluCl; 100 µM L-glutamate in the presence of 0.1 nM IVM): 1.3 ± 0.3% | L-glutamate-mediated current response (mean ± SEM) (B. malayi AVR-14B GluCl; 1 mM L-glutamate in the presence of 0.01 nM IVM): 34.2 ± 7.5% | L-glutamate-mediated current response (mean ± SEM) (B. malayi AVR-14B GluCl; 1 mM L-glutamate in the presence of 0.1 nM IVM): 4.0 ± 0.6% | L-glutamate-mediated current response (mean ± SEM) (B. malayi AVR-14B GluCl; 10 mM L-glutamate in the presence of 0.01 nM IVM): 70.3 ± 7.9% | L-glutamate-mediated current response (mean ± SEM) (B. malayi AVR-14B GluCl; 10 mM L-glutamate in the presence of 0.1 nM IVM): 7.7 ± 0.7% | nH (Hill coefficient), direct activation (B. malayi AVR-14B GluCl; [7]): 0.3 ± 0.1 and 0.3 ± 0.2 | pEC50, direct activation (B. malayi AVR-14B GluCl; [7]): 8.7 ± 1.2 | EC50 ([3]; read-out: estimated EC50): ~0.0001 µM

N[C@@H](CC(=O)O)C(=O)O [L-aspartate]
agonist activity (in words) (B. malayi AVR-14B GluCl): failed to induce any measurable channel activity

N[C@@H](CCC(=O)O)C(=O)O [L-glutamate]
EC50 [1]: 96.1 µM | EC50 [2]: 29.7 µM | EC50 [4]: 2200 µM | time constant of desensitization (τ) (B. malayi AVR-14B GluCl; 3 µM L-glutamate): 1.3 ± 0.3 s | reversal potential (Erev) of glutamate-gated currents (B. malayi AVR-14B GluCl; 1 mM L-glutamate, −80 to +20 mV): −28.9 ± 2.9 mV | time constant of desensitization (τ) (B. malayi AVR-14B GluCl; 30 mM L-glutamate): 0.6 ± 0.1 s | nH (Hill coefficient), direct activation (B. malayi AVR-14B GluCl; [7]): 0.8 ± 0.3 | activation at 1000 µM (B. malayi AVR-14B GluCl; read-out: L-glutamate-mediated current response (mean ± SEM), 1 mM L-glutamate alone, 0.01 nM IVM experiment): 54.3 ± 9.2% | activation at 1000 µM (B. malayi AVR-14B GluCl; read-out: L-glutamate-mediated current response (mean ± SEM), 1 mM L-glutamate alone, 0.1 nM IVM experiment): 52.8 ± 3.3% | activation at 10000 µM (B. malayi AVR-14B GluCl; read-out: L-glutamate-mediated current response (mean ± SEM), 10 mM L-glutamate alone, 0.01 nM IVM experiment): 100% | activation at 10000 µM (B. malayi AVR-14B GluCl; read-out: L-glutamate-mediated current response (mean ± SEM), 10 mM L-glutamate alone, 0.1 nM IVM experiment): 100% | EC50 [3]: 27.6 µM | EC50 [5]: ~1000 µM

C/C(=C\C=C\[C@]1(C)[C@@H](O)CC[C@@]2(C)[C@H]1CC[C@H]1Cc3c([nH]c4cc5c(cc34)C3=CC(C)(C)OC(C)(C)[C@H]3C5)[C@@]12C)C(=O)O [NA, Nodulisporic acid]
exposure required to produce a reduction in worm motility similar to IVM (adult B. malayi worms; adult worms): > 3 days | recovery from the motility paralysis (adult B. malayi worms): do not show any sign of recovery | EC50 (B. malayi AVR-14B GluCl; EC50, direct activation (agonist), normalized to 30 mM L-glutamate): 2.7 µM | nH, potentiation (PAM) of L-glutamate response (B. malayi AVR-14B GluCl; in the presence of 30 µM L-glutamate): 0.8 ± 0.4 | increase in the mean AUC response of L-glutamate (B. malayi AVR-14B GluCl; in the presence of NA): approximately sevenfold increase | EC50 (B. malayi AVR-14B GluCl; pEC50, direct activation, peak current normalized to 30 mM L-glutamate): 2.51 µM | nH (Hill coefficient), direct activation (B. malayi AVR-14B GluCl; [7]): 1.6 ± 0.8

CN[C@H](CC(=O)O)C(=O)O [NMDA, N-methyl-D-aspartic acid]
agonist activity (in words) (B. malayi AVR-14B GluCl): failed to induce any measurable channel activity

CC(C)C[C@H]1C(=O)O[C@H](Cc2ccc(N3CCOCC3)cc2)C(=O)N(C)[C@@H](CC(C)C)C(=O)O[C@H](C)C(=O)N(C)[C@@H](CC(C)C)C(=O)O[C@H](Cc2ccc(N3CCOCC3)cc2)C(=O)N(C)[C@@H](CC(C)C)C(=O)O[C@H](C)C(=O)N1C [emodepside]
IC50 (B. malayi; [8]): 0.801 µM | IC50 (B. malayi; read-out: IC50(male), motility, male B. malayi): 0.176 µM

N[C@H](C(=O)O)c1cc(O)no1 [ibotenate]
normalized current response to agonist (mean ± SEM) (B. malayi AVR-14B GluCl; agonist 1 mM, normalized to 1 mM L-glutamate response): 73.4 ± 2.5%

C=C(C)[C@H]1CN[C@H](C(=O)O)[C@H]1CC(=O)O [kainate]
agonist activity (in words) (B. malayi AVR-14B GluCl): failed to induce any measurable channel activity

c1ccc([C@H]2CN3CCSC3=N2)cc1 [levamisole]
IC50 (B. malayi; [8]): 0.01 µM | gradual recovery from the paralytic effects (B. malayi): 3 to 4 h

N[C@@H](Cn1oc(=O)[nH]c1=O)C(=O)O [quisqualate]
agonist activity (in words) (B. malayi AVR-14B GluCl): failed to induce any measurable channel activity

picrotoxin [PTX]
inhibition of the glutamate response (B. malayi AVR-14B GluCl; 100 µM, 30 mM L-glutamate): failed to completely block | direct activation as agonist (in words) (B. malayi AVR-14B GluCl): failed to produce direct activation | nH, inhibition of L-glutamate-gated current (B. malayi AVR-14B GluCl; [6]): −1.2 ± 0.6 | pIC50, inhibition of L-glutamate-gated current (B. malayi AVR-14B GluCl; [6]): 4.5 ± 0.2 | IC50 (B. malayi AVR-14B GluCl; read-out: IC50, inhibition of L-glutamate-gated current, coapplied with 30 mM L-glutamate): 33.1 µM

Source: PMC9407656 (Proceedings of the National Academy of Sciences of the …, 2022)
